Assay results taken from US20050096308A1, “Antibacterial agents” (priority 2003, published 2005).
Converted amounts (≈) assume the structure as drawn.

Key:
Assay in all cases: Antibacterial assay (Test A), standard microtitration, MIC
Assay type in all cases: cell-based
H. influenzae HI-3542 = conditions: Haemophilus influenzae, HI3542; Gram Negative Bacteria; strain HI-3542; read-out: Minimum Inhibitory Concentrations H. influenzae HI-3542
Experimental: (§1) Test A—Antibacterial Assays
(§2) The compounds of the present invention were tested against an assortment of Gram-negative and Gram-positive organisms using standard microtitration techniques (Cohen et. al., Antimicrob., 1985;28:766; Heifetz, et. al., Antimicrob., 1974;6:124).

E. coli MC4100 = conditions: Escherichia coli; Gram Negative Bacteria; strain MC4100; read-out: Minimum Inhibitory Concentrations E. coli MC4100
Experimental: as §1, §2

M. catarrhalis BC-3531 = conditions: Moraxella catarrhalis, BC3531; Gram Negative Bacteria; strain BC-3531; read-out: Minimum Inhibitory Concentrations M. catarrhalis BC-3531
Experimental: as §1, §2

S pyogenes C203 = conditions: Gram Positive Bacteria; strain C203; read-out: Minimum Inhibitory Concentrations S pyogenes C203
Experimental: as §1, §2

S. aureus UC-76 = conditions: Staphylococcus aureus, UC76; Gram Positive Bacteria; strain UC-76; read-out: Minimum Inhibitory Concentrations S. aureus UC-76
Experimental: as §1, §2

E. faecalis MGH-2 = conditions: Enterococcus faecalis, MGH2; Gram Positive Bacteria; strain MGH-2; read-out: Minimum Inhibitory Concentrations E. faecalis MGH-2
Experimental: as §1, §2

SMILES	MIC (H. influenzae HI-3542)	MIC (E. coli MC4100)	MIC (M. catarrhalis BC-3531)	MIC (S pyogenes C203)	MIC (S. aureus UC-76)	MIC (E. faecalis MGH-2)
Cc1c(N2CC(O)C2)c(F)cc2c(=O)n(N)c(=O)n(C3CC3)c12 [drawing 118]	32 µg/mL (≈ 99.9 µM)	1 µg/mL (≈ 3.12 µM)	1 µg/mL (≈ 3.12 µM)	–	–	–
Cc1c(N2CC(CCO)C2)c(F)cc2c(=O)n(N)c(=O)n(C3CC3)c12 [drawing 119]	4 µg/mL (≈ 11.5 µM)	32 µg/mL (≈ 91.9 µM)	4 µg/mL (≈ 11.5 µM)	–	–	–
CC(C)C1(O)CN(c2c(F)cc3c(=O)n(N)c(=O)n(C4CC4)c3c2Cl)C1 [drawing 128]	–	–	–	64 µg/mL (≈ 167 µM)	16 µg/mL (≈ 41.8 µM)	32 µg/mL (≈ 83.6 µM)
CC(C)C1(O)CN(c2c(F)cc3c(=O)n(N)c(=O)n(C4CC4)c3c2Cl)C1 [drawing 122]	32 µg/mL (≈ 83.6 µM)	64 µg/mL (≈ 167 µM)	32 µg/mL (≈ 83.6 µM)	–	–	–
Nc1nc(-n2c(=O)n(N)c(=O)c3cc(F)c(N4CC(O)C4)c(Cl)c32)c(F)cc1F [drawing 117]	1 µg/mL (≈ 2.33 µM)	64 µg/mL (≈ 149 µM)	4 µg/mL (≈ 9.33 µM)	–	–	–
Nn1c(=O)c2cc(F)c(N3CC(O)(C4CC4)C3)c(Cl)c2n(C2CC2)c1=O [drawing 126]	–	–	–	0.5 µg/mL (≈ 1.31 µM)	0.03 µg/mL (≈ 0.0788 µM)	0.5 µg/mL (≈ 1.31 µM)
Nn1c(=O)c2cc(F)c(N3CC(O)(c4ccc(F)cc4)C3)c(Cl)c2n(C2CC2)c1=O [drawing 127]	–	–	–	8 µg/mL (≈ 18.4 µM)	4 µg/mL (≈ 9.2 µM)	16 µg/mL (≈ 36.8 µM)
Cc1c(N2CC(CCO)C2)c(F)cc2c(=O)n(N)c(=O)n(C3CC3)c12 [drawing 125]	–	–	–	16 µg/mL (≈ 45.9 µM)	4 µg/mL (≈ 11.5 µM)	16 µg/mL (≈ 45.9 µM)
Nn1c(=O)c2cc(F)c(N3CC(O)(C4CC4)C3)c(Cl)c2n(C2CC2)c1=O [drawing 120]	0.03 µg/mL (≈ 0.0788 µM)	0.002 µg/mL (≈ 0.00525 µM)	0.03 µg/mL (≈ 0.0788 µM)	–	–	–
Nc1nc(-n2c(=O)n(N)c(=O)c3cc(F)c(N4CC(O)C4)c(Cl)c32)c(F)cc1F [drawing 123]	–	–	–	16 µg/mL (≈ 37.3 µM)	4 µg/mL (≈ 9.33 µM)	16 µg/mL (≈ 37.3 µM)
Cc1c(N2CC(O)C2)c(F)cc2c(=O)n(N)c(=O)n(C3CC3)c12 [drawing 124]	–	–	–	16 µg/mL (≈ 49.9 µM)	1 µg/mL (≈ 3.12 µM)	32 µg/mL (≈ 99.9 µM)
Nn1c(=O)c2cc(F)c(N3CC(O)(c4ccc(F)cc4)C3)c(Cl)c2n(C2CC2)c1=O [drawing 121]	32 µg/mL (≈ 73.6 µM)	64 µg/mL (≈ 147 µM)	16 µg/mL (≈ 36.8 µM)	–	–	–
